These results are taken from ChEMBL document CHEMBL1147309, “Antitumor agents, 110. Bryophyllin B, a novel potent cytotoxic bufadienolide from Bryophyllum pinnatum” (1989).

≈ marks a conversion by molar mass, not a printed value. Some results are limits rather than exact numbers.

What all share (assay type): functional
Details in all cases: read-out: ED50 (the source's name)

Test [1] deals with KB. Kind of test: Cytotoxicity against human KB cells.
The test system of test [2] is A549. Kind of test: Cytotoxicity against human A549 cells.
Test [3] concerns HCT-8. Kind of test: Cytotoxicity against human HCT8 cells.
The test system of test [4] is P388. Kind of test: Cytotoxicity against mouse P388 cells.
The subject of test [5] is L1210. In words: Cytotoxicity against mouse L1210 cells.

Regarding `CC(=O)O[C@H]1C[C@@H](O)[C@]2(C=O)[C@H]3CC[C@]4(C)[C@@H](c5ccc(=O)oc5)CC[C@]4(O)[C@@H]3CC[C@]2(O)C1`, the EC50 was under 0.04 µg/mL in test [1]; 0.04 µg/mL (≈ 0.0843 µM) in test [2]; 0.01 µg/mL (≈ 0.0211 µM) in test [3]; over 0.004 µg/mL in test [4]; over 0.004 µg/mL in test [5].

Consider `C[C@@]12O[C@H]3C[C@@H](O1)[C@]1(C=O)[C@H]4[C@H](O)C[C@]5(C)[C@@H](c6ccc(=O)oc6)CC[C@]5(O)[C@@H]4CC[C@@]1(C3)O2` [BRYOPHYLLIN A], for which the EC50 is 0.014 µg/mL (≈ 0.0296 µM) in test [1]; 0.01 µg/mL (≈ 0.0212 µM) in test [2]; 0.03 µg/mL (≈ 0.0635 µM) in test [3]; over 0.004 µg/mL in test [4]; over 0.004 µg/mL in test [5].

`CC(=O)O[C@@H]1C[C@H](O)C[C@@]2(O)CC[C@@H]3[C@@H]4[C@@H](C[C@]5(C)[C@@H](c6ccc(=O)oc6)CC[C@]35O)O[C@H](O)[C@]412` [BRYOPHYLLIN B]: the EC50 in test [1] is under 0.08 µg/mL.
